From publication PMC12189828, “Substitution of Proline Residues by 4-Fluoro-L-Proline Affects the Mechanism of the Proline-Rich Antimicrobial Peptide Api137” (Antibiotics, 2025)
Where a SMILES comes first, the peptide text is derived from it. [ ]: non-standard residue; d: D form. The star is where a group is joined. Orn(α-tetramethylguanidino) = CN(C)C(=N[C@@H](CCCN)C(=O)*)N(C)C; Pro(trans-4-F) = O=C(O)[C@@H]1C[C@@H](F)CN1; Pro(cis-4-F) = O=C(O)[C@@H]1C[C@H](F)CN1

Tests used:
[1] = test system: in vitro expression of sfGFP in the presence of RF1; assay: In vitro transcription-translation (iTT) assay of sfGFP in the presence of RF1; type: biochemical; conditions: peptide 5 µmol/L, RF1, 37 °C, 2 h, fluorescence, normalized to absence of PrAMPs, n = 3
Method: The sfGFP expression analysis relied on the NEB PureExpress Delta RF123 Kit (New England Biolabs, Frankfurt, Germany). The DNA template encoding sfGFP with a UAG stop codon was amplified from the pY71sfGFP vector by PCR using the primers sfGFP fwd ([…]) and sfGFP rev ([…]). The release factor RF1 of the kit was diluted 50-fold (v/v) in 1× Pure System Buffer (PSB, 1 mol/L magnesium acetate, 0.5 mol/L K3PO4 (pH 7.3), 1 mol/L potassium glutamate, 1 mol/L NH4Cl, 0.5 mol/L CaCl2, 1 mol/L spermidine, 0.1 mol/L putrescine, 0.1 mol/L DTT). sfGFP expression was performed in a freshly prepared mixture of kit solution A (2 µL), kit solution B (1.5 µL), 50-fold diluted RF1 (0.5 µL), sfGFP template (0.1325 pmol, 35 ng) or water as control (0.25 µL), PSB (0.25 µL), and a PrAMP (50 or 0 µmol/L) dissolved in water (0.5 µL). The reaction mixture was transferred to a black 384-well plate (flat bottom, PS, 784900, Greiner Bio-One GmbH), covered with a lid, and incubated (37 °C, 2 h) in a microplate reader (Gemini EM, Molecular Devices, San Jose, CA, USA). Fluorescence was recorded every 10 min (λex = 485 nm, λem = 535 nm).

[2] = test system: 50S subunit assembly / 70S ribosome in E. coli RN31; assay: Ribosome profile analysis (RPA), sucrose gradient of E. coli RN31 lysate; type: cell-based, Escherichia coli; conditions: 90 min; for RPA [pre-50S formation]: E. coli RN31, 33% TSB, peptide 8 µg/mL, 5–25% sucrose gradient, n = 2 (Api137 n = 7)
Method: E. coli RN31 was grown in 33% TSB (37 °C, 200 rpm) from a starting OD600 of 0.05 to an OD600 of 0.2, measured on a NanoPhotometer® (NP80; Implen; Westlake Village, CA, USA), and divided into subcultures that were inoculated with a peptide ([…]) before being cultured for 90 min (37 °C, 200 rpm). The following steps were performed on ice. Cells were harvested by centrifugation (4000× g, 4 °C, 25 min), washed with TICO buffer (20 mmol/L Hepes-KOH, pH 7.6, 6 mmol/L MgAc2, 30 mmol/L KAc), centrifuged (4000× g, 25 min, 4 °C), and stored at −80 °C. The cell pellet was suspended in TICO buffer (500 µL) and mixed with silica beads (zirconium glass pellets, 100 µm diameter; Carl Roth; Karlsruhe, Germany) to lyse the cells on a FastPrep-24^TM 5G (MP Biomedicals, Solon, OH, USA) using three disruption cycles (30 s, 6.0 m/s) interrupted by 1 min of incubation on ice after each cycle. Cell debris was removed by centrifugation (5000× g, 4 °C, 5 min), the supernatant was transferred to a new reaction tube, centrifuged (20,000× g, 4 °C, 20 min), the absorbance was recorded at 260 nm on a NanoPhotometer® NP80, and the sample was stored at −80 °C.
A 5% (w/v) sucrose solution (6.5 mL) in TICO buffer containing 2-mercaptoethanol (4 mmol/L) was poured into an open-top centrifuge tube (13.2 mL, 14 × 89 mm, Beckman Coulter) and bottomed with a 25% (w/v) sucrose solution (6.5 mL) in TICO buffer containing 2-mercaptoethanol (4 mmol/L) using a cannula. The tube was sealed with parafilm and placed horizontally at 4 °C for 3 h and vertically at 4 °C for 30 min. A portion of the upper layer (550 µL) was replaced by lysate (500 µL, A260 = 30) and centrifuged using a swing-out rotor (SW 41 Ti, 52,500× g, 4 °C, 19 h) without a brake. The contents were transferred from bottom-up to obtain equal volumes in all wells of a black 96-well plate with a flat bottom (96 Well PP black Greiner Bio-One GmbH, Frickenhausen, Germany) using the Äkta Purifier 10 system, and absorbance was recorded at a wavelength of 254 nm. Fluorescence was measured in the plate using the PARADIGM at excitation (λex) and emission (λem) wavelengths of 485 nm and 535 nm for eGFP and 585 nm and 635 nm, respectively, for mCherry and normalized to the 70S ribosome peak (set to 100%).

E. coli RN31 = assay: Growth inhibition of E. coli RN31 during 90 min exponential growth phase; type: cell-based, Escherichia coli; conditions: for reduction of bacterial growth vs untreated control: E. coli RN31, 33% TSB, peptide 8 µg/mL, OD600, two biological replicates (n = 2)
Method: The following steps were performed on ice. Cells were harvested by centrifugation (4000× g, 4 °C, 25 min), washed with TICO buffer (20 mmol/L Hepes-KOH, pH 7.6, 6 mmol/L MgAc2, 30 mmol/L KAc), centrifuged (4000× g, 25 min, 4 °C), and stored at −80 °C. The cell pellet was suspended in TICO buffer (500 µL) and mixed with silica beads (zirconium glass pellets, 100 µm diameter; Carl Roth; Karlsruhe, Germany) to lyse the cells on a FastPrep-24^TM 5G (MP Biomedicals, Solon, OH, USA) using three disruption cycles (30 s, 6.0 m/s) interrupted by 1 min of incubation on ice after each cycle. Cell debris was removed by centrifugation (5000× g, 4 °C, 5 min), the supernatant was transferred to a new reaction tube, centrifuged (20,000× g, 4 °C, 20 min), the absorbance was recorded at 260 nm on a NanoPhotometer® NP80, and the sample was stored at −80 °C. […]

Structure (SMILES) | Residual iTT (sfGFP expression relative to no PrAMP) ([1]; listed as 4S-Fpr16) | Residual iTT (sfGFP expression relative to no PrAMP) ([1]; listed as Pro16 4S-Fpr (cis)) | RPA [pre-50S formation] [2] | reduction of bacterial growth vs untreated control (E. coli RN31; 90 min) | Residual iTT (sfGFP expression relative to no PrAMP) [1] | 70S peak (area) relative to untreated control ([2]; E. coli RN31, peptide 8 µg/mL, sucrose gradient profile) | Residual iTT (sfGFP expression relative to no PrAMP) ([1]; listed as 4R-Fpr16) | Residual iTT (sfGFP expression relative to no PrAMP) ([1]; listed as Pro16 4R-Fpr (trans)) | ribosomal profile, pre-50S peak ([2]; E. coli RN31, adjusted peptide concentration 4 µg/mL) | OD600 of treated culture after 90 min (E. coli RN31; E. coli RN31, peptide 8 µg/mL, 90 min, initial OD600 = 0.226 ± 0.006 at 0 min) | cell count relative to the initial cell count (E. coli RN31; E. coli RN31, peptide 8 µg/mL, 90 min vs 0 min (OD600))
CC[C@H](C)[C@H](NC(=O)[C@H](Cc1ccc(O)cc1)NC(=O)[C@@H](NC(=O)[C@@H]1CCCN1C(=O)[C@H](CCCNC(=N)N)NC(=O)[C@H](CC(N)=O)NC(=O)[C@H](CC(N)=O)NC(=O)[C@H](CCCN)N=C(N(C)C)N(C)C)C(C)C)C(=O)N1CCC[C@H]1C(=O)N[C@@H](CCCNC(=N)N)C(=O)N1CCC[C@H]1C(=O)N[C@@H](CCCNC(=N)N)C(=O)N1CCC[C@H]1C(=O)N1CCC[C@H]1C(=O)N[C@@H](Cc1c[nH]cn1)C(=O)N1C[C@@H](F)C[C@H]1C(=O)N[C@@H](CCCNC(=N)N)C(=O)N[C@@H](CC(C)C)C(=O)O [Api849] ({Orn(α-tetramethylguanidino)}-NNRPVYIPRPRPPH[Pro(cis-4-F)]RL-OH) | 63% | 63 ± 8.9% | no | 16% | – | – | – | – | – | – | –
CC[C@H](C)[C@H](NC(=O)[C@H](Cc1ccc(O)cc1)NC(=O)[C@@H](NC(=O)[C@@H]1CCCN1C(=O)[C@H](CCCNC(=N)N)NC(=O)[C@H](CC(N)=O)NC(=O)[C@H](CC(N)=O)NC(=O)[C@H](CCCN)N=C(N(C)C)N(C)C)C(C)C)C(=O)N1C[C@H](F)C[C@H]1C(=O)N[C@@H](CCCNC(=N)N)C(=O)N1CCC[C@H]1C(=O)N[C@@H](CCCNC(=N)N)C(=O)N1CCC[C@H]1C(=O)N1CCC[C@H]1C(=O)N[C@@H](Cc1c[nH]cn1)C(=O)N1CCC[C@H]1C(=O)N[C@@H](CCCNC(=N)N)C(=O)N[C@@H](CC(C)C)C(=O)O [Api846] ({Orn(α-tetramethylguanidino)}-NNRPVYI[Pro(trans-4-F)]RPRPPHPRL-OH) | – | – | no | 34% | 33 ± 3.5% | ~ 45% | – | – | – | – | –
CC[C@H](C)[C@H](NC(=O)[C@H](Cc1ccc(O)cc1)NC(=O)[C@@H](NC(=O)[C@@H]1CCCN1C(=O)[C@H](CCCNC(=N)N)NC(=O)[C@H](CC(N)=O)NC(=O)[C@H](CC(N)=O)NC(=O)[C@H](CCCN)N=C(N(C)C)N(C)C)C(C)C)C(=O)N1CCC[C@H]1C(=O)N[C@@H](CCCNC(=N)N)C(=O)N1C[C@@H](F)C[C@H]1C(=O)N[C@@H](CCCNC(=N)N)C(=O)N1CCC[C@H]1C(=O)N1CCC[C@H]1C(=O)N[C@@H](Cc1c[nH]cn1)C(=O)N1CCC[C@H]1C(=O)N[C@@H](CCCNC(=N)N)C(=O)N[C@@H](CC(C)C)C(=O)O [Api841] ({Orn(α-tetramethylguanidino)}-NNRPVYIPR[Pro(cis-4-F)]RPPHPRL-OH) | – | – | yes | 65% | 32 ± 0.9% | – | – | – | – | – | –
CC[C@H](C)[C@H](NC(=O)[C@H](Cc1ccc(O)cc1)NC(=O)[C@@H](NC(=O)[C@@H]1CCCN1C(=O)[C@H](CCCNC(=N)N)NC(=O)[C@H](CC(N)=O)NC(=O)[C@H](CC(N)=O)NC(=O)[C@H](CCCN)N=C(N(C)C)N(C)C)C(C)C)C(=O)N1CCC[C@H]1C(=O)N[C@@H](CCCNC(=N)N)C(=O)N1CCC[C@H]1C(=O)N[C@@H](CCCNC(=N)N)C(=O)N1CCC[C@H]1C(=O)N1CCC[C@H]1C(=O)N[C@@H](Cc1c[nH]cn1)C(=O)N1C[C@H](F)C[C@H]1C(=O)N[C@@H](CCCNC(=N)N)C(=O)N[C@@H](CC(C)C)C(=O)O [Api850] ({Orn(α-tetramethylguanidino)}-NNRPVYIPRPRPPH[Pro(trans-4-F)]RL-OH) | – | – | yes | 84% | – | – | 28% | 28 ± 0.7% | reduced the area of the pre-50S peak | 0.333 ± 0.002 | ~ 140%
